Data from article PMC9291816 (Clinical Pharmacology and Therapeutics, 2021).

Key:
[1] = cited from earlier work
CYP3A [2] = conditions: both, human, plasma, po, 2 mg, probe midazolam
CYP3A [3] = test system: CYP3A; set-up: species or system human; conditions: refined to recover observed midazolam AUCR; 1/18 of the in vitro k inact
[4] = Clinical DDI study in healthy adults; assay type: in vivo, human; conditions: for AUC(0-t) / Cmax: both, human, plasma, oral
[5] = PBPK model; cited from earlier work
infants with Type 1 SMA = conditions: cited from earlier work

Row | Compound | UGT1A4 contribution to clearance ([1]; adults) | FG (intestinal availability) [1] | AUC(0-t) (CYP3A [2]) [ng·h/mL] | Cmax (CYP3A [2]) [ng/mL] | in vivo k inact (CYP3A [3]) | tolerability ([4]; 14 days, alone and coadministered with midazolam, healthy adults) | AUC(0-t) ([4]; 5 mg) [ng·h/mL] | Cmax ([4]; 5 mg) [ng/mL] | AUC(0-t) ([4]; 8 mg) [ng·h/mL] | Cmax ([4]; 8 mg) [ng/mL] | hepatic intrinsic CL via CYP3A share of clearance [5] [%] | hepatic intrinsic CL via FMO3 share of clearance [5] [%] | renal CL (CLR) share of clearance [5] [%] | increase in the SMN protein (infants with Type 1 SMA)
1 | Cc1ncc2n1-c1ccc(Cl)cc1C(c1ccccc1F)=NC2 [midazolam] | 1–2% | 0.55 | 19.9 | 7.65 | – | – | – | – | – | – | – | – | – | –
2 | Cc1cn2nc(-c3cc(=O)n4cc(N5CCNC6(CC6)C5)ccc4n3)cc(C)c2n1 [risdiplam, Risdiplam] | – | – | – | – | in vivo k inact ^e = 0.22/hour | well tolerated | 1250 | 78.6 | 1730 | 113 | 20 | 75 | 5 | approximately twofold
